Data on 1 substance can be found in PMC9112550, “Optimization of the antimicrobial peptide Bac7 by deep mutational scanning” (BMC Biology, 2022).

The assay concerns E. coli TOP10. Put plainly: Single-strain growth experiments, intracellular peptide expression. The settings on record: negative control, expressed in E. coli TOP10. The format is cell-based. Here is the method: To assess the antimicrobial activity of single peptides when expressed intracellularly in E. coli TOP10, a monoclonal strain carrying the pBAD plasmid containing a single peptide gene was picked from solid media, incubated overnight, and inoculated into a fresh LB medium containing 0.3% (w/v) L-arabinose to a final OD of 0.01 into 96-well microtiter plate (Greiner). Growth of strains was recorded by measuring OD in a Tecan Infinite 200 PRO (Tecan, Männedorf, CH) for at least 4 h (37°C, 1.5 mm orbital shaking).

Consider “HNP-1: inactive peptide HNP-1 expressed as the negative control”, for which the “activity on intracellular expression” value was “inactive”.
